According to US20080044491A1, “METAL-CONTAINING FORMULATIONS AND METHODS OF USE” (priority 2006, published 2008):
Values after ≈ are worked out from the molar mass of the structure shown.

What was measured:
[1] = Compatibility of nanocrystalline silver with excipients; format: physicochemical; settings: 10% aqueous solution of excipient with nanocrystalline silver, glass vial, 40° C. overnight
Enterobacter cloacae = assay: MIC assay (microdilution); format: cell-based; settings: Ent. cloacae
Escherichia coli = assay: MIC assay (microdilution); format: cell-based
Staphylococcus aureus = assay: MIC assay (microdilution); format: cell-based; settings: lactate solutions, nanocrystalline silver = range for 12 samples
[2] = tested on: Staphylococcus epidermidis; assay: MIC assay (microdilution); format: cell-based; settings: S. epiderm (ATCC); lactate solutions; nanocrystalline silver = range for 12 samples
Streptococcus pyogenes = assay: MIC assay (microdilution); format: cell-based; settings: lactate solutions, nanocrystalline silver = range for 12 samples
Streptococcus pneumoniae = assay: MIC assay (microdilution); format: cell-based; settings: lactate solutions, nanocrystalline silver = range for 12 samples
Pseudomonas aeruginosa = assay: MIC assay (microdilution); format: cell-based; settings: lactate solutions, nanocrystalline silver = range for 12 samples
[3] = tested on: Mycobacterium tuberculosis H37Ra (ATCC 25177); format: cell-based
DNBS-induced colitis = DNBS-induced colitis in rat: total IBD score; format: in vivo; settings: intracolonic 250 μl once a day for five days
Description: Animals: Male Sprague-Dawley rats, weighing approximately 250-300 gm were purchased from Charles River Laboratories (Raleigh, N.C.). The animals were housed under standard conditions with free access to food and water. They were acclimatized for 2-3 days before commencing the experiments. The study protocol was approved by the Institutional Animal Care and Use Committees (IACUC).
Induction of ulcerative colitis: Colitis was produced according to published methods. Animals were anesthetized by intraperitoneal injection of 75 mg/kg of ketamine plus 5 mg/kg of xylazine. A single intracolonic injection of 120 mg/ml of dinitrobenzenesulfonic acid (DNBS) (Sigma Chemicals, St. Louis, Mo.) in 250 micro liter of 50% ethanol was administered through a Tom Cat catheter (Kendall Sovereign, Mansfield, Mass.) with a closed-end tip, connected to a 1 ml syringe and placed 7 cm proximal to the anus. Lubricant was applied to the tip of the catheter before injection, to protect from mucosal injury. After instillation of DNBS, 0.5 ml of air was insufflated and the catheter was removed.
Sulfasalazine (Sigma Chemicals, St Louis, Mo.), at a concentration of 120 mg/ml for intracolonic treatment and 30 mg/ml for oral treatment was used as the reference drug in all the experiments. Sulfasalazine was first dissolved in 0.1M NaOH at a concentration about 30-fold higher than the required final concentration, and then suspended in 1.5% PVA for oral dosing and 5.7% PVA for intracolonic dosing.
One group was not treated and served as no treatment group. Treatment began one day after administration of DNBS.
Macroscopic Observations: Body weight was recorded daily and the animals were examined for their physical appearance. After five days of treatment, animals were sacrificed. The colon was excised between the ileocecal junction and rectum, and opened longitudinally. After scoring of the consistency of the stool the colon was rinsed in normal saline, examined and thickness of the colonic wall and number and size of ulcers were scored. Stool consistency was graded on a scale of 0-3: 0=normal stool, well formed pellets rigid as normal; 1=loose stool, formed pellet with moisture, soft stool keeping in stool shape; 2=loose stool, stools that have abnormal form with much moisture, softer shapeless stool; 3=watery or bloody diarrhea.
Thickness of colonic wall was graded on a scale of 0-4: 0=normal, no thickness; 1=mild thickness in lower portion of the colon; 2=moderate thickness in localized area; 3=moderate thickness extending to the central portion of the colon; 4=severe thickness in the whole colon. Colonic ulceration was graded on a scale of 0-10: 0=no ulcers; 1=one small ulcer less than 2-3 mm; 2=one large ulcer more than 2-3 mm; 3=two large ulcerations more than 2-3 mm in diameter; 4=two or more sites of ulcerations extending 1 cm along the length; 5-10=when an area of ulceration extended more than 1 cm along the length of the colon, the score increases by 1 for each additional cm of involvement. The total IBD score, obtained by the sum of the scores of colonic ulcer, colon thickness and stool consistency for each animal, was calculated for each treatment group.
Statistical Analysis: The results are expressed as the mean ±SE. The statistical significance in the mean total IBD score, histopathological inflammation score, and the immunohistochemical staining of cytokines or MMP-9 was determined using Tukey-Kramer's multiple comparison tests following one-way analysis of variance (ANOVA). The data were calculated with the aid of Instat Graph Pad Software. Differences with a P value less than 0.05 were considered significant.
Methods: Colitis was induced in rats using DNBS as described in Example 25. Animals were treated intracolonically (250 μl of the test reagents) once a day for five days. […] Methods: Colitis was induced in rats using DNBS as described in Example 25. Animals were treated intracolonically (250 μl of the test reagents) once a day for five days.

OCc1ccccc1 [Benzyl alcohol]
Reaction with nanocrystalline silver [1]: Grey/slightly red

CCCCCCCCCCCCCCCCCCO [Cetearyl alcohol]
Reaction with nanocrystalline silver [1]: Light brown/green/black

CCCCCCCCCCCCCCCCO [Cetyl alcohol]
Reaction with nanocrystalline silver [1]: Grey color - no discoloration

CCCCCCCCCCCCCCCCCC(=O)OCC(O)CO (stereo not drawn) [Glycerol monostearate]
Reaction with nanocrystalline silver [1]: Brown discoloration

CCCCCCCCCCCCCC(=O)OC(C)C [Isopropyl myristate]
Reaction with nanocrystalline silver [1]: Grey color - no discoloration

COC(=O)c1ccc(O)cc1 [Methylparaben]
Reaction with nanocrystalline silver [1]: Brown discoloration

CC(O)CO (stereo not drawn) [Propylene glycol]
Reaction with nanocrystalline silver [1]: Discoloration

CCCOC(=O)c1ccc(O)cc1 [Propylparaben]
Reaction with nanocrystalline silver [1]: Green discoloration

OO [Sample H2O2, hydrogen peroxide]
Reaction with nanocrystalline silver [1]: Brown discoloration after drying
MIC (Enterobacter cloacae; Catalase/SOD +): >500 µg/mL
MIC (Enterobacter cloacae; Catalase/SOD −): 63 µg/mL (≈ 1850 µM)
MIC (Escherichia coli; E. coli, Catalase/SOD +): >500 µg/mL
MIC (Escherichia coli; E. coli, Catalase/SOD −): 31 µg/mL (≈ 911 µM)

O=C([O-])c1ccccc1.[Na+] [Sodium benzoate]
Reaction with nanocrystalline silver [1]: White precipitate

CCCCCCCCCCCCCCCCCC(=O)O [Stearic acid]
Reaction with nanocrystalline silver [1]: Grey color - no discoloration

CCOCCOCCO [Transcutol, diethylene glycol monoethyl ether]
Reaction with nanocrystalline silver [1]: Grey color - no discoloration

Sodium parabens
Reaction with nanocrystalline silver [1]: Precipitation

silver oxide [Ag2O]
MIC (Staphylococcus aureus; S. aureus (ATCC)): 3 µg/mL
MIC (Staphylococcus aureus; S. aureus (clin.)): 6 µg/mL
MIC [2]: 2 µg/mL
MIC (Streptococcus pyogenes; S. pyog (clin. 303)): 2 µg/mL
MIC (Streptococcus pyogenes; S. pyog (clin. 304)): 3 µg/mL
MIC (Streptococcus pneumoniae; S. pneumo (clin 314)): 3 µg/mL
MIC (Streptococcus pneumoniae; S. pneumo (clin 315)): 2 µg/mL
MIC (Pseudomonas aeruginosa; P. aerug (ATCC)): 0.8 µg/mL
MIC (Pseudomonas aeruginosa; P. aerug. (clin.)): 2 µg/mL
MIC (Escherichia coli; E. coli (ATCC), lactate solutions, nanocrystalline silver = range for 12 samples): 0.8 µg/mL
minimum inhibitory concentration (MIC) [3]: 2.5 μg/ml silver
total IBD score vs placebo (DNBS-induced colitis; 0.25% homogenized): unable to show significant reduction
total IBD score vs placebo (DNBS-induced colitis; 0.25% sonicated nanodispersion): but not 0.25% sonicated
total IBD score vs placebo (DNBS-induced colitis; 0.5% homogenized): unable to show significant reduction
total IBD score vs placebo (DNBS-induced colitis; 0.5% sonicated nanodispersion): significantly reduced the total IBD score
total IBD score vs placebo (DNBS-induced colitis; 1.5% sonicated nanodispersion): significantly reduced the total IBD score
